According to PMC10065799, “High-throughput profiling of sequence recognition by tyrosine kinases and SH2 domains using bacterial peptide display” (eLife, 2023):

What was measured:
Assay in all cases: pTyr-Var library bacterial peptide display kinase screen (enrichment scores)
EPHB2 kinase domain = assay type: biochemical, human; conditions: sheet EPHB2
c-Src kinase domain = c-Src kinase domain (Homo sapiens, UniProt P12931); assay type: biochemical; conditions: sheet "Src";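 further: log2 fold change in enrichment of variant over reference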
EPHB1 kinase domain = assay type: biochemical, human; conditions: for Screen: sheet EPHB1, effect of the variant peptide relative to its reference peptide in the pTyr-Var library screen (enrichment scores); for Screen (variant relative to reference peptide, measured in the pTyr-Var library screen): sheet "EPHB1", variant seq vs reference seq, bacterial peptide display enrichment
Fer kinase domain = assay type: biochemical, mouse; conditions: sheet "Fer"
c-Abl kinase domain = biological target: T1, c-Abl kinase domain (Mus musculus, UniProt P00520); assay type: biochemical;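 further: log2 fold change in enrichment of variant over reference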
T1 sequence (P00520 242-493 limits assumed): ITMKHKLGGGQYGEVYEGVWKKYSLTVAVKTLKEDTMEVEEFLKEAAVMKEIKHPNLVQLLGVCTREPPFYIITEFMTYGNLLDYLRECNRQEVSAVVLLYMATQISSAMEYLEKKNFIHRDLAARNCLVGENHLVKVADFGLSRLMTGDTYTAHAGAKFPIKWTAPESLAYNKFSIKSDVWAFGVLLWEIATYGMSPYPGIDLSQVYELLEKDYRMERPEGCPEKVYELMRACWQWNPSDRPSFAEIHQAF

[1] = effect of variant peptide relative to its reference peptide in the pTyr-Var library screen (enrichment scores)
[2] = effect of the variant peptide relative to its reference peptide in the pTyr-Var library screen
[3] = value of the variant peptide against its reference peptide in the pTyr-Var library screen with Fer
[4] = effect of the variant relative to its reference peptide in the pTyr-Var library screen
[5] = variant peptide versus its reference peptide in the pTyr-Var library screen
[6] = variant peptide relative to its reference peptide, pTyr-Var library screen enrichment
[7] = sheet "Abl", effect of variant peptide relative to its reference peptide in pTyr-Var library screen (enrichment)
[8] = fig5-data2, sheet "Abl", Screen for the variant/reference peptide pair, pTyr-Var library

Row | Sequence | Screen (EPHB2 kinase domain; [1]) | Screen (c-Src kinase domain; [2]) | Screen (EPHB1 kinase domain) | Screen (Fer kinase domain; [3]) | also measured
1 | LASLIYNFILF [AQP6_Y231_V234I] | -1.512 | 0.7887 | 0.3462 | 0.3008 | –
2 | FADGVYLALEE [DUOX2_Y70_Q71L_YF] | -0.6876 | -0.6157 | -0.7119 | – | –
3 | NREGVYRVFAP [TGFBI_Y537_T538R] | – | – | – | – | Screen (EPHB2 kinase domain; [4]): -2.433; Screen (c-Src kinase domain; [5]): -0.9266; Screen (variant relative to reference peptide, measured in the pTyr-Var library screen) (EPHB1 kinase domain): -2.691; Screen (Fer kinase domain; [6]): -4.485
4 | LRWREYQRQDF [PRKRIP1_Y90_R87W_YF] | 1.877 | – | 1.398 | 1.318 | Screen (c-Src kinase domain; [5]): 1.62
5 | DSFATYFRWVL [H2BW1_Y84_R87W] | – | 2.683 | 1.664 | 2.515 | –
6 | HGEAFYSEVKA [PAK5_Y182_P187A_YF] | – | – | -0.6457 | -0.1663 | Screen (c-Src kinase domain; [5]): 0.7945
7 | HVKHNYECLVF [XRCC5_Y416_I412V_YF] | – | – | – | – | Screen (variant relative to reference peptide, measured in the pTyr-Var library screen) (EPHB1 kinase domain): -0.4743
8 | RAILLYEFVGK [NATD1_Y45_V42I_YF] | 1.274 | – | 1.082 | 1.125 | Screen (c-Src kinase domain; [5]): 1.103
9 | LADKPYTFEFF [FXN_Y118_D122Y_YF] | -0.8967 | -0.4395 | – | -0.3661 | –
10 | SPPILYSFFLN [FCRL6_Y239_D244N_YF] | 0.2765 | 0.0865 | 0.08597 | 1.473 | –
11 | PKSLFYLLLKP [TRPC6_Y775_L780P] | – | – | – | – | Screen (EPHB2 kinase domain; [4]): -1.737; Screen (c-Src kinase domain; [5]): -1.15; Screen (Fer kinase domain; [6]): -0.7977
12 | GNLLIYTDFGK [HGD_Y166_E168D] | – | -0.3604 | 0.7596 | – | –
13 | DNEAIYDICRC [TUBA4A_Y210_R215C] | – | – | – | – | Screen (EPHB2 kinase domain; [4]): -0.1529; Screen (c-Abl kinase domain; [7]): -0.2438; Screen (c-Src kinase domain; [5]): 0.192; Screen (variant relative to reference peptide, measured in the pTyr-Var library screen) (EPHB1 kinase domain): -1.159; Screen (Fer kinase domain; [6]): -0.3932
14 | LENSTYQFICV [CRB1_Y760_R764C_YF] | 0.2665 | -1.066 | -0.5365 | -1.109 | Screen (c-Abl kinase domain; [8]): 0.05369
15 | ANAFIYDVQLP [L1CAM_Y420_V421D_YF] | – | 2.894 | 1.352 | – | –
16 | LLDGEYFTLQI [TP53_Y327_P322L] | – | – | – | – | Screen (c-Src kinase domain; [5]): 0.8932; Screen (variant relative to reference peptide, measured in the pTyr-Var library screen) (EPHB1 kinase domain): 0.245; Screen (Fer kinase domain; [6]): 0.2479
17 | DASENYFVMDS [TMEM240_Y77_T80M] | – | – | – | – | Screen (EPHB2 kinase domain; [4]): 2.274; Screen (variant relative to reference peptide, measured in the pTyr-Var library screen) (EPHB1 kinase domain): 2.244
18 | FEKFLYFLPAS [DYNC2H1_Y346_H341Y_YF] | – | – | -0.7762 | – | –
19 | FFPANYVAPMT [GRAP2_Y324_L319F] | 0.7095 | – | 0.4698 | – | –
20 | KKFPDYIQSAM [SGMS2_Y59_I62S_YF] | – | – | – | – | Screen (variant relative to reference peptide, measured in the pTyr-Var library screen) (EPHB1 kinase domain): -3.574
21 | RGDCMYASLLG [AR_Y269_P271S] | -2.657 | 0.07196 | -1.7 | -2.075 | –
22 | MSRNLYSGDCF [DDR2_Y736_Y740C_YF] | -2.168 | -1.107 | -1.85 | -0.7796 | –
23 | ITNLLYHVVSW [GBA_Y412_G416S] | 0.7379 | -0.28 | 0.5526 | – | –

Row | Sequence | Screen (EPHB2 kinase domain; [1]) | Screen (c-Src kinase domain; [2]) | Screen (EPHB1 kinase domain) | Screen (Fer kinase domain; [3]) | also measured
24 | NEKNIYGVPLM [BMPR2_Y247_R248G] | 2.247 | 1.983 | – | 2.844 | –
25 | RKVLVYDKLNV [ROR2_Y624_N620K] | -1.435 | – | -0.6022 | – | Screen (c-Src kinase domain; [5]): -1.144; Screen (Fer kinase domain; [6]): -1.726
26 | GADAIYDHVNE [UQCR10_Y44_I47V] | – | – | – | – | Screen (EPHB2 kinase domain; [4]): 0.825; Screen (c-Src kinase domain; [5]): -0.3881; Screen (Fer kinase domain; [6]): 0.2964
27 | SCPANYFAFKI [FAM3D_Y65_P60S] | -0.7683 | -0.7557 | -0.6297 | – | –
28 | PTKNDYWAMPA [WWOX_Y287_L291P] | – | – | – | – | Screen (EPHB2 kinase domain; [4]): 3.139; Screen (c-Abl kinase domain; [7]): -1.562; Screen (variant relative to reference peptide, measured in the pTyr-Var library screen) (EPHB1 kinase domain): 3.488
29 | LIFVSYDDWDF [GRIN2A_Y281_S278F_YF] | 1.496 | 0.7047 | 0.6915 | -0.259 | –
30 | NIEPIYLNMLL [ATR_Y317_V316I] | 1.556 | 0.03812 | 0.9992 | 0.3194 | –
31 | PEPHIYAVADV [MYO9A_Y216_L211P] | 0.8276 | – | – | 0.8588 | Screen (c-Src kinase domain; [5]): 0.7992
32 | LTERDYSFVTT [ACTG2_Y199_G198D] | 1.327 | – | 1.497 | 1.738 | –
33 | NTILLYHIMAW [GPR143_Y157_S152N] | 0.3631 | – | 0.2317 | – | Screen (c-Abl kinase domain; [8]): 0.6057
34 | LGQRIYQFIRS [DYRK1B_Y271_Q275R_YF] | -1.048 | -0.5682 | -0.4041 | -0.8955 | –
35 | HRGHLYLAIEF [TEK_Y899_Y897H_YF] | – | – | – | – | Screen (c-Src kinase domain; [5]): 2.155; Screen (variant relative to reference peptide, measured in the pTyr-Var library screen) (EPHB1 kinase domain): 0.9917
36 | DSNLIYSQIWS [FCRL3_Y662_P660L] | -0.3687 | -0.2629 | -0.4048 | -0.3219 | –
37 | LPEENYQVLCF [ARHGAP1_Y365_R369C] | 1.989 | 2.107 | 1.32 | 1.701 | –
38 | FAELMYTGFWH [ASS1_Y322_V321M] | 0.8429 | -0.1313 | 0.6121 | -0.4066 | –
39 | EAVSIYQFFGQ [CBLC_Y402_H405Y_YF] | 1.796 | -0.1267 | 2.283 | -0.2521 | –
40 | RRIFSYRGHLW [VHL_Y112_H110Y_YF] | – | – | – | – | Screen (c-Abl kinase domain; [7]): -4.34; Screen (c-Src kinase domain; [5]): -2.013; Screen (variant relative to reference peptide, measured in the pTyr-Var library screen) (EPHB1 kinase domain): -1.652
41 | QNTGDYCDLFG [PTPN11_Y62_Y63C_YF] | -1.274 | – | -1.22 | – | Screen (c-Src kinase domain; [5]): -0.9656
42 | FVFSFYHAFSG [ACTN4_Y265_S262F_YF] | – | -2.513 | -0.8684 | – | –
43 | GESKDYALHAG [SVIL_Y185_V189A] | – | – | – | – | Screen (variant relative to reference peptide, measured in the pTyr-Var library screen) (EPHB1 kinase domain): -2.109
44 | SSWPDYVRPLP [HSPB1_Y54_G53D] | – | – | 1.698 | – | –
45 | NPIGLYSAEIL [LDB3_Y202_T206I] | 0.5797 | – | 0.7886 | 1.652 | –
46 | PIFLFYLMDLS [ITGB2_Y131_D128Y_YF] | – | -0.3916 | 1.841 | – | –
